From ChEMBL document CHEMBL1140597, “Evaluating scoring functions for docking and designing beta-secretase inhibitors” (Bioorg Med Chem Lett, 2007)

Each compound was assayed against Beta-secretase 1 (Homo sapiens, UniProt P56817) (assay: Inhibition of BACE1).
Chain of Beta-secretase 1 (P56817 whole entry): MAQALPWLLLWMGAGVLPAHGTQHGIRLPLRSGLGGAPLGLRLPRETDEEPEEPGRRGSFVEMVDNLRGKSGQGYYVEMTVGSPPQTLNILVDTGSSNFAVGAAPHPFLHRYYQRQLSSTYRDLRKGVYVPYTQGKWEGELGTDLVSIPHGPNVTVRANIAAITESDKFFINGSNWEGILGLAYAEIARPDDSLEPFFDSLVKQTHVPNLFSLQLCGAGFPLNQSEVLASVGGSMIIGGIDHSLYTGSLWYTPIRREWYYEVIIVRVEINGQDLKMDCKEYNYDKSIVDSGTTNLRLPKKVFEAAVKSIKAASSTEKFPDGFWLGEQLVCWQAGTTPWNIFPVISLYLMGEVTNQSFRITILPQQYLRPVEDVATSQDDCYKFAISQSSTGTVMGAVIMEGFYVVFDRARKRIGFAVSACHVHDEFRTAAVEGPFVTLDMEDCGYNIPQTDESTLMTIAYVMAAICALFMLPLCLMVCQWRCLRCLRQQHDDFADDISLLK

Compound | IC50 | Ki
CC(=O)c1ccccc1-c1cc(C(=O)N[C@@H](Cc2ccccc2)[C@H](O)CN[C@H](C)c2ccccc2)cc(C(=O)N[C@H](C)c2ccccc2)c1 | 0.348 µM | –
CC(=O)c1ccccc1-c1cc(C(=O)N[C@@H](Cc2ccccc2)[C@H](O)CNC2CC2)cc(C(=O)N[C@H](C)c2ccccc2)c1 | 0.317 µM | –
C=CCNC[C@@H](O)[C@H](Cc1ccccc1)NC(=O)c1cc(C(=O)N[C@H](C)c2ccccc2)cc(-c2ccccc2C(C)=O)c1 | 0.223 µM | –
CC(=O)c1ccccc1-c1cc(C(=O)N[C@@H](Cc2ccccc2)[C@H](O)CN(C)Cc2ccccc2)cc(C(=O)N[C@H](C)c2ccccc2)c1 | > 10 µM | –
CC(=O)c1ccccc1-c1cc(C(=O)N[C@H](CO)Cc2ccccc2)cc(C(=O)N[C@H](C)c2ccccc2)c1 | 9.9 µM | –
CSCC[C@H](NC(=O)[C@@H](NC(=O)OC(C)(C)C)C(C)C)C(=O)N[C@@H](CC(C)C)[C@@H](O)C[C@@H](C)C(=O)N[C@H](C(=O)NCc1ccccc1)C(C)C | – | 5.81 µM

Next, values leading:

IC50 | Ki | Compound
0.11 µM | – | CC(=O)c1ccccc1-c1cc(C(=O)N[C@@H](Cc2ccccc2)[C@H](O)CNc2ccccc2)cc(C(=O)N[C@H](C)c2ccccc2)c1
> 10 µM | – | CC(=O)c1ccccc1-c1cc(C(=O)N[C@@H](Cc2ccccc2)[C@H](O)CN2CCC2)cc(C(=O)N[C@H](C)c2ccccc2)c1
1.4 µM | – | CC(=O)c1ccccc1-c1cc(C(=O)N[C@@H](Cc2ccccc2)[C@H](O)CNC2CCC2)cc(C(=O)N[C@H](C)c2ccccc2)c1
0.418 µM | – | CC(=O)c1ccccc1-c1cc(C(=O)N[C@@H](Cc2ccccc2)[C@H](O)CNCC2CC2)cc(C(=O)N[C@H](C)c2ccccc2)c1
0.674 µM | – | CC(=O)c1ccccc1-c1cc(C(=O)N[C@@H](Cc2ccccc2)[C@H](O)CNC(C)C)cc(C(=O)N[C@H](C)c2ccccc2)c1
0.115 µM | – | CC(=O)c1ccccc1-c1cc(C(=O)N[C@@H](Cc2ccccc2)[C@H](O)CN[C@@H](C)c2ccccc2)cc(C(=O)N[C@H](C)c2ccccc2)c1
0.115 µM | – | CC(=O)c1ccccc1-c1cc(C(=O)N[C@@H](Cc2ccccc2)[C@H](O)CNCc2ccccc2)cc(C(=O)N[C@H](C)c2ccccc2)c1
– | 0.0003 µM | H-ELDLAVEF-OH
– | 0.008 µM | CC(C)C[C@H](NC(=O)[C@H](CS(C)(=O)=O)NC(=O)[C@@H](NC(=O)OC(C)(C)C)C(C)C)[C@@H](O)C[C@@H](C)C(=O)N[C@H](C(=O)NCc1ccccc1)C(C)C
